System: B16F10 cancer cells
Test: In vitro protein transfection: delivery of RNase A into B16F10 cancer cells, cell viability by Alamar Blue assay
Format: cell-based
Method: Compositions A-D and Comparative Compositions A′-D′ and D″ were tested for delivery of RNase A into B16F10 cancer cells.
B16F10 cancer cells were cultured in Dulbecco's Modified Eagle Medium supplemented with 10% Fetal Bovine Serum and 1% penicillin/streptomycin at 37° C. in the presence of 5% CO2. For the protein transfection assay described below, cells were seeded in 96-well plates at a density of 10,000 cells per well a day prior to transfection.
To evaluate protein delivery efficiency, Compositions A-D and Comparative Compositions A′-D′ and D″ described in Examples 1-4 were added to B16F10 cancer cells and incubated at 37° C. for 24 hours. The protein concentration was 3.3 μg/mL in PBS. Compound EC16-63, dissolved in the same volume of PBS, was used as a control. The cell viability was determined by the Alamar Blue assay after 24 hours of incubation. All transfection studies were performed in quadruplicate.

SMILES: CCCCCCCCCCCCCCC(O)CN(C)CCCN(C)CC(O)CCCCCCCCCCCCCC (centres unmarked) [Compound EC16-63]
- cell viability (lipid-like compound alone, control) (24 hours incubation, compound dissolved in same volume of PBS, no protein): 90%
- cytotoxicity (in words) (lipid-like compound alone, 24 hours): low cytotoxicity

Reference: patent publication US10888622B2, “Nanocomplexes of modified peptides or proteins” (Trustees of Tufts College, priority 2013, dated 2021)
